Results on one molecule are retold here after ChEMBL document CHEMBL2062475, “Langkolide, a 32-membered macrolactone antibiotic produced by Streptomyces sp. Acta 3062” (J Nat Prod, 2012).

Calls of active or inactive are those of the source. The calls are words filed in the database; no cut-off is given here.

The term IC50 denotes the concentration needed to halve the response being measured.

One assay concerns Nakaseomyces glabratus. The assay can be described thus: Antifungal activity against Candida glabrata DSM 6425 after 14 to 16 hrs by resazurin reduction assay. The format is functional, organism-based. Background: Alamar Blue is a resazurin reagent that responds to reducing activity.
The subject of another assay is Bacillus subtilis. Nature of the assay: Antibacterial activity against Bacillus subtilis DSM 347 after 14 to 16 hrs by resazurin reduction assay. The format is functional, organism-based.
In assay [1] the target is Glycogen synthase kinase-3 beta (Homo sapiens, UniProt P49841). The assay can be described thus: Inhibition of recombinant GSK3beta by KinaseGlo assay. A general note: Kinase-Glo measures the ATP left after a reaction by luminescence.
Another assay has as its system Candida albicans. The assay can be described thus: Antifungal activity against Candida albicans DSM 1386 after 14 to 16 hrs by resazurin reduction assay. The format is functional, organism-based.
Another assay deals with HT-29. The assay can be described thus: Cytotoxicity against human HT-29 cells after 24 hrs by CellTiter-Blue assay. The following applies: HT-29, 24 h. The assay is classed as functional, cell-based.
The subject of the next assay is Xanthomonas campestris. The assay can be described thus: Antibacterial activity against Xanthomonas campestris DSM 2405 after 14 to 16 hrs by resazurin reduction assay. The format is functional, organism-based.
Another assay deals with Cutibacterium acnes. The assay can be described thus: Antibacterial activity against Propionibacterium acnes DSM 1897 after 48 hrs by resazurin reduction assay. The assay is classed as functional, organism-based.
The subject of a further assay is NIH3T3. Nature of the assay: Cytotoxicity against mouse NIH/3T3 cells after 24 hrs by CellTiter-Blue assay. The format is functional, cell-based. The following applies: NIH3T3, 24 h.
The test system of the next assay is Mammaliicoccus lentus. Nature of the assay: Antibacterial activity against Staphylococcus lentus DSM 6672 after 14 to 16 hrs by resazurin reduction assay. The assay is classed as functional, organism-based.
A further assay concerns HepG2. Nature of the assay: Cytotoxicity against human HepG2 cells after 24 hrs by CellTiter-Blue assay. The assay is classed as functional, cell-based. The following applies: HepG2, 24 h.
Assay [2] has as its target 3',5'-cyclic-AMP phosphodiesterase 4B (Homo sapiens, UniProt Q07343). The assay can be described thus: Inhibition of human recombinant PDE4B2 by HTS cAMP assay. A general note: cAMP levels reflect the balance of adenylyl cyclase and phosphodiesterase activity.

3',5'-cyclic-AMP phosphodiesterase 4B, sequence (Q07343 whole entry): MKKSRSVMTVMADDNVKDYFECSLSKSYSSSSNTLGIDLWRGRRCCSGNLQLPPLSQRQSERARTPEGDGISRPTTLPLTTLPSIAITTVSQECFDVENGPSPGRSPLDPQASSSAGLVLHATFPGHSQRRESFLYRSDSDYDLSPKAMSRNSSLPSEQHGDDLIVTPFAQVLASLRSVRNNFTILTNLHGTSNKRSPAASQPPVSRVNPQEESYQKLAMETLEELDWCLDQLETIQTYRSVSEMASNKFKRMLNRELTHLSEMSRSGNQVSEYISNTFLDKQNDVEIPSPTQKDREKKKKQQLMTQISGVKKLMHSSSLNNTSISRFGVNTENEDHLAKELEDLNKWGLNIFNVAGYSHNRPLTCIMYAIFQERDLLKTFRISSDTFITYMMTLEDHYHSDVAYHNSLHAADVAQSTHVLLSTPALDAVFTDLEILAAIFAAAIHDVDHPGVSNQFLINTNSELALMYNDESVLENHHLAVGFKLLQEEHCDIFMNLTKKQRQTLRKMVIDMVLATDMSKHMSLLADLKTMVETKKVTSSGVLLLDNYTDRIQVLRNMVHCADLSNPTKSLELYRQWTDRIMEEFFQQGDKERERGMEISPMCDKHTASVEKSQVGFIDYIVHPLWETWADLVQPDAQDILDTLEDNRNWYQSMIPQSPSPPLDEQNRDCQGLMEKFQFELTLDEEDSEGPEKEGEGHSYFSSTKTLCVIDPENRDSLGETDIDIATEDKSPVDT
Glycogen synthase kinase-3 beta, sequence (P49841 whole entry): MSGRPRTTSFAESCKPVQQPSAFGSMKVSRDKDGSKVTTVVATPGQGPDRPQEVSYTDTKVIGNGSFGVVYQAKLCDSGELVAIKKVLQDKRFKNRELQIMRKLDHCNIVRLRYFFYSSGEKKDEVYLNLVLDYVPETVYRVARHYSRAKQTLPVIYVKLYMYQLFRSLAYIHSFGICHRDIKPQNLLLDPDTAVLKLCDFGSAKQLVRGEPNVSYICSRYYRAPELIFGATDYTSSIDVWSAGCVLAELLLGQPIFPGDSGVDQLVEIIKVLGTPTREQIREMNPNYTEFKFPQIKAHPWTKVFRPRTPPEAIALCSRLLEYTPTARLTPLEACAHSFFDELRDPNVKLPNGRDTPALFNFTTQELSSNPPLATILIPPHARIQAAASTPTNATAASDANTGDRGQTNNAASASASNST

For the molecule `CC(=O)O[C@H]1C[C@@H](O)C[C@H](O)C[C@@H](O)[C@@H]2O[C@H]2[C@@H](C)[C@@H]([C@@H](C)[C@@H](O)[C@H](C)[C@@H](O)[C@@H](C)[C@@H](C)O[C@H]2CC[C@H](O[C@@H]3CC[C@@H](OC(=O)[C@H](C)[C@@H](O)/C(C)=C/c4ccc5c(c4)C(=O)C=CC5=O)[C@H](C)O3)[C@H](C)O2)OC(=O)/C=C/[C@H](C)[C@@H](O)C[C@H](O)/C=C/CC[C@@H](C)[C@@H](O)[C@H](O)[C@@]2(O)O[C@@H](C1)C[C@@H](O)[C@@H]2O` [LANGKOLIDE], the IC50 was found to be 1 µM in the assay with Nakaseomyces glabratus; 2.17 µM in assay [1]; 1.23 µM in the assay on Candida albicans; 1.38 µM in the assay with HT-29; 0.49 µM in the assay with NIH3T3; 2.41 µM in the assay with HepG2. In addition, in assay [2], the IC50 is 0.48 µM. Also, the outcome in the assay with Bacillus subtilis, in the assay with Xanthomonas campestris, in the assay with Cutibacterium acnes and with Mammaliicoccus lentus was inactive.
